# Assay results as given in PubChem BioAssay (NCI).
#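 Cells were grown in 96-well plates and exposed to each compound for 48 hours at five concentrations; endpoints were interpolated linearly between bracketing concentrations, or set to the highest concentration if not reached. Definition used: TGI = concentration required for complete inhibition of growth.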
# Key:
# Experiment in all cases: NCI tumour cell line growth inhibition, 48 h
# LOX IMVI melanoma = system: LOX IMVI melanoma
# DMS 273 small cell lung = system: DMS 273 small cell lung
# HCT-15 colon = system: HCT-15 colon
# SF-539 CNS = system: SF-539 CNS
# SK-MEL-2 melanoma = system: SK-MEL-2 melanoma
# IGROV1 ovarian = system: IGROV1 ovarian
# MALME-3M melanoma = system: MALME-3M melanoma
# NCI-H522 lung = system: NCI-H522 lung
# SF-268 CNS = system: SF-268 CNS
# OVCAR-5 ovarian = system: OVCAR-5 ovarian
# HOP-92 NSCLC = system: HOP-92 NSCLC
# HT29 colon = system: HT29 colon
# HL-60(TB) leukemia = system: HL-60(TB) leukemia
# SNB-75 CNS = system: SNB-75 CNS
# SNB-78 CNS = system: SNB-78 CNS
# DMS 114 small cell lung = system: DMS 114 small cell lung
# SN12C renal = system: SN12C renal
# TK-10 renal = system: TK-10 renal
# OVCAR-4 ovarian = system: OVCAR-4 ovarian
# KM20L2 colon = system: KM20L2 colon
# SK-OV-3 ovarian = system: SK-OV-3 ovarian
# KM12 colon = system: KM12 colon
# CAKI-1 renal = system: CAKI-1 renal
# DU-145 prostate = system: DU-145 prostate
# UO-31 renal = system: UO-31 renal
# RXF 393 renal = system: RXF 393 renal
# RPMI-8226 leukemia = system: RPMI-8226 leukemia
# NCI-H460 lung = system: NCI-H460 lung
# RXF-631 renal = system: RXF-631 renal
# M14 melanoma = system: M14 melanoma
# 786-0 renal = system: 786-0 renal
# UACC-62 melanoma = system: UACC-62 melanoma
# NCI-H226 lung = system: NCI-H226 lung
# UACC-257 melanoma = system: UACC-257 melanoma
# SK-MEL-5 melanoma = system: SK-MEL-5 melanoma
# HCC-2998 colon = system: HCC-2998 colon
# DLD-1 colon = system: DLD-1 colon
# HCT-116 colon = system: HCT-116 colon
# SNB-19 CNS = system: SNB-19 CNS
# A549 NSCLC = system: A549 NSCLC
# CCRF-CEM leukemia = system: CCRF-CEM leukemia
# OVCAR-8 ovarian = system: OVCAR-8 ovarian
# A498 renal = system: A498 renal
# SW-620 colon = system: SW-620 colon
# MOLT-4 leukemia = system: MOLT-4 leukemia
# SR leukemia = system: SR leukemia
# SK-MEL-28 melanoma = system: SK-MEL-28 melanoma
# HOP-62 NSCLC = system: HOP-62 NSCLC
# COLO 205 colon = system: COLO 205 colon
# HOP-18 NSCLC = system: HOP-18 NSCLC
# SF-295 CNS = system: SF-295 CNS
# K-562 leukemia = system: K-562 leukemia
# U251 CNS = system: U251 CNS
# M19-MEL melanoma = system: M19-MEL melanoma
# EKVX NSCLC = system: EKVX NSCLC
# XF 498 CNS = system: XF 498 CNS
# OVCAR-3 ovarian = system: OVCAR-3 ovarian
# NCI-H23 lung = system: NCI-H23 lung
# ACHN renal = system: ACHN renal
# LXFL 529 NSCLC = system: LXFL 529 NSCLC
# P388/ADR leukemia = system: P388/ADR leukemia
# P388 leukemia = system: P388 leukemia
# NCI/ADR-RES ovarian = system: NCI/ADR-RES ovarian
# MCF7 breast = system: MCF7 breast
# SN12K1 renal = system: SN12K1 renal
smiles,measurement,setting,value
C=C(CN(C)C)C(=O)c1ccccc1C,TGI,LOX IMVI melanoma,> 100 µM
same,TGI,DMS 273 small cell lung,75.8 µM
same,TGI,HCT-15 colon,> 63.1 µM
same,TGI,SF-539 CNS,> 60.8 µM
same,TGI,SK-MEL-2 melanoma,> 100 µM
same,TGI,IGROV1 ovarian,> 100 µM
same,TGI,MALME-3M melanoma,36 µM
same,TGI,NCI-H522 lung,12.3 µM
same,TGI,SF-268 CNS,> 100 µM
same,TGI,OVCAR-5 ovarian,> 100 µM
same,TGI,HOP-92 NSCLC,33.3 µM
same,TGI,HT29 colon,> 100 µM
same,TGI,HL-60(TB) leukemia,15.9 µM
same,TGI,SNB-75 CNS,> 100 µM
same,TGI,SNB-78 CNS,> 100 µM
same,TGI,DMS 114 small cell lung,42.5 µM
same,TGI,SN12C renal,> 78.1 µM
same,TGI,TK-10 renal,> 100 µM
same,TGI,OVCAR-4 ovarian,> 100 µM
same,TGI,KM20L2 colon,> 100 µM
same,TGI,SK-OV-3 ovarian,> 100 µM
same,TGI,KM12 colon,> 100 µM
same,TGI,CAKI-1 renal,62.6 µM
same,TGI,DU-145 prostate,> 100 µM
same,TGI,UO-31 renal,> 69.2 µM
same,TGI,RXF 393 renal,17.6 µM
same,TGI,RPMI-8226 leukemia,48.6 µM
same,TGI,NCI-H460 lung,> 100 µM
same,TGI,RXF-631 renal,> 100 µM
same,TGI,M14 melanoma,33.8 µM
same,TGI,786-0 renal,35.8 µM
same,TGI,UACC-62 melanoma,> 62.3 µM
same,TGI,NCI-H226 lung,> 100 µM
same,TGI,UACC-257 melanoma,> 100 µM
same,TGI,SK-MEL-5 melanoma,> 100 µM
same,TGI,HCC-2998 colon,> 100 µM
same,TGI,DLD-1 colon,45.8 µM
same,TGI,HCT-116 colon,> 57.1 µM
same,TGI,SNB-19 CNS,> 100 µM
same,TGI,A549 NSCLC,> 100 µM
same,TGI,CCRF-CEM leukemia,34.2 µM
same,TGI,OVCAR-8 ovarian,> 100 µM
same,TGI,A498 renal,> 100 µM
same,TGI,SW-620 colon,33.1 µM
same,TGI,MOLT-4 leukemia,35.7 µM
same,TGI,SR leukemia,47.2 µM
same,TGI,SK-MEL-28 melanoma,62.4 µM
same,TGI,HOP-62 NSCLC,> 100 µM
same,TGI,COLO 205 colon,31.9 µM
same,TGI,HOP-18 NSCLC,> 52.4 µM
same,TGI,SF-295 CNS,> 100 µM
same,TGI,K-562 leukemia,45.9 µM
same,TGI,U251 CNS,> 100 µM
same,TGI,M19-MEL melanoma,53.5 µM
same,TGI,EKVX NSCLC,> 100 µM
same,TGI,XF 498 CNS,> 75.6 µM
same,TGI,OVCAR-3 ovarian,> 58.7 µM
same,TGI,NCI-H23 lung,> 100 µM
same,TGI,ACHN renal,57.6 µM
same,TGI,LXFL 529 NSCLC,30.7 µM
CC1(C)CC23C4COC(=O)C2CCC1C3CC4=O (stereo unspecified),TGI,LOX IMVI melanoma,22.6 µM
same,TGI,DMS 273 small cell lung,71 µM
same,TGI,P388/ADR leukemia,84.5 µM
same,TGI,HCT-15 colon,21.9 µM
same,TGI,SF-539 CNS,45.1 µM
same,TGI,SK-MEL-2 melanoma,40.6 µM
same,TGI,IGROV1 ovarian,69 µM
same,TGI,MALME-3M melanoma,23.3 µM
same,TGI,NCI-H522 lung,11.2 µM
same,TGI,SF-268 CNS,50.9 µM
same,TGI,OVCAR-5 ovarian,72.4 µM
same,TGI,HOP-92 NSCLC,29.3 µM
same,TGI,HT29 colon,95.2 µM
same,TGI,HL-60(TB) leukemia,12.6 µM
same,TGI,SNB-75 CNS,57.6 µM
same,TGI,SNB-78 CNS,73.4 µM
same,TGI,SN12C renal,42.5 µM
same,TGI,OVCAR-4 ovarian,64.2 µM
same,TGI,KM20L2 colon,54.6 µM
same,TGI,SK-OV-3 ovarian,104 µM
same,TGI,P388 leukemia,111 µM
same,TGI,KM12 colon,27.2 µM
same,TGI,CAKI-1 renal,43 µM
same,TGI,UO-31 renal,90.1 µM
same,TGI,NCI/ADR-RES ovarian,24.8 µM
same,TGI,RXF 393 renal,4.76 µM
same,TGI,RPMI-8226 leukemia,48.6 µM
same,TGI,NCI-H460 lung,29.8 µM
same,TGI,UACC-62 melanoma,28.7 µM
same,TGI,NCI-H226 lung,20.6 µM
same,TGI,UACC-257 melanoma,26.3 µM
same,TGI,SK-MEL-5 melanoma,32.7 µM
same,TGI,HCC-2998 colon,37.2 µM
same,TGI,DLD-1 colon,42.6 µM
same,TGI,HCT-116 colon,21.9 µM
same,TGI,SNB-19 CNS,81.2 µM
same,TGI,A549 NSCLC,70.3 µM
same,TGI,CCRF-CEM leukemia,43.4 µM
same,TGI,OVCAR-8 ovarian,46.6 µM
same,TGI,A498 renal,13.8 µM
same,TGI,SW-620 colon,10.2 µM
same,TGI,MOLT-4 leukemia,63.2 µM
same,TGI,MCF7 breast,47.9 µM
same,TGI,SK-MEL-28 melanoma,18.9 µM
same,TGI,HOP-62 NSCLC,59.3 µM
same,TGI,COLO 205 colon,33.6 µM
same,TGI,HOP-18 NSCLC,5.11 µM
same,TGI,SF-295 CNS,53.5 µM
same,TGI,K-562 leukemia,123 µM
same,TGI,U251 CNS,50.7 µM
same,TGI,M19-MEL melanoma,40.7 µM
same,TGI,EKVX NSCLC,83.8 µM
same,TGI,XF 498 CNS,27.2 µM
same,TGI,OVCAR-3 ovarian,27.7 µM
same,TGI,SN12K1 renal,48.2 µM
same,TGI,NCI-H23 lung,10.8 µM
